Where a name gives a salt, the structure may show the parent alone. Read-outs that look alike come from different tables or passages of the source. Starred links: 1 amine or outer side, 2 acyl side, 3 side chain; linkers in the order of their positions; H or OH if unused. Positions of bridges follow the written chain, without caps; N, C: chain ends. Non-standard residues stand in square brackets, D forms with d. Residues, ends and D or L forms follow the SMILES beside them. *: point of attachment. DOTA = O=C(O)CN1CCN(CC(=O)O)CCN(CC(=O)*)CCN(CC(=O)O)CC1; Trp(5-OH) = N[C@@H](Cc1c[nH]c2ccc(O)cc12)C(=O)O; NMePhe(4-F) = CN[C@@H](Cc1ccc(F)cc1)C(=O)O; NMehPhe = CN[C@@H](CCc1ccccc1)C(=O)O; Aad = N[C@@H](CCCC(=O)O)C(=O)O; Gly(cPr) = N[C@H](C(=O)O)C1CC1; aThr = C[C@H](O)[C@H](N)C(=O)O; NMeK = CN[C@@H](CCCCN)C(=O)O; NMeDap = CN[C@@H](CN)C(=O)O; hLys = NCCCCC[C@H](N)C(=O)O; X6 = O=C(C[*:1])[*:2]
Tests used:
Type in all cases: binding
[1] = target: T1, human HER2 (23-652) (Homo sapiens, UniProt P04626); test: Surface plasmon resonance (SPR) for assessment of peptide affinity, human HER2; design: towards human HER2 (23-652) and mouse HER2 (23-653); made in house; settings: SPR, human HER2 extracellular domain, 25° C., 1:1 binding model; read-out: huHER2-SPR-ONC KD
Procedure: Each protein was immobilized either onto a SA sensorchip (Cytiva, BR-1005-31) or CM5 sensorchip (Cytiva, BR-1005-30) to a density of 800-2000 RU. […] For the assay setup the same conditions (flow rate, running buffer, peptide dilution) as described above were used. In a first step the Anti Fc IgG Ab (from Human Antibody Capture Kit, Ref. 29234600, Cytiva) was diluted into acetate pH 5.0 at 25 ug/mL and immobilized at a flow rate of 10 uL/min over 360 s to reach a density around 6000 RU. […] The peptides were tested with an association time of 280 s followed by a dissociation time of 3000 s at a flow rate of 30 uL/min. The regeneration was done using 3 M magnesium chloride regeneration solution as obtained with a contact time of 30 s at a flow rate of 10 uL/min. Curve fitting was performed using the BiacoreTM 8K evaluation software.

[2] = target: T1, human HER2 (23-652); test: TR-FRET competition assay for peptide potency, human HER2; design: towards human HER2 (23-652) and mouse HER2 (23-653); made in house; host or cells: mammalian cells; settings: read-out: huHER2 TR-FRET IC50
Procedure: (§1) Both proteins containing a His-, Avi-tag and biotin in Nterminus, were expressed in mammalian cells and produced in house. […] Standard assay conditions consist of 20 uL total volume in white 384-well plates (Greiner), in 10 mM HEPES buffer containing 150 mM NaCl, 3 mM EDTA, 0.05% Tween20 and 1% final DMSO. […] The ratiometric FRET assay readout is calculated from the ratio of the raw data of the two distinct fluorescence signals measured in time resolved mode (fluorescence 665 nm/fluorescence 620 nm). IC50 values were calculated with the standard Novartis in-house assay data analysis software (Helios software application, Novartis Institutes for BioMedical Research, unpublished) using the methods described in Comput. Methods. Programs. Biomed. 2006, 82, 31-37 (regression algorithms for nonlinear dose-response curve fitting).

[3] = target: mouse HER2 (23-653) (Mus musculus, UniProt P70424); test: TR-FRET competition assay for peptide potency, mouse HER2; design: mouse HER2 (23-653) using a Cy5 labeled peptide as a probe; made in house; host or cells: mammalian cells; settings: TR-FRET competition with Cy5 labeled peptide probe, 0.1 nM mouse HER2, 24 h incubation; read-out: moHER2 TR-FRET IC50
Procedure: as §1

[4] = TR-FRET competition with Cy5 labeled peptide probe, 0.1 nM human HER2, 24 h incubation

In the case of `CC(=O)NCCCC[C@H]1C(=O)N[C@@H](Cc2c[nH]c3ccc(O)cc23)C(=O)N[C@H](Cc2c[nH]c3ccccc23)C(=O)N[C@@H](C2CC2)C(=O)N(C)[C@H](C(=O)N(C)[C@@H](Cc2ccc(F)cc2)C(=O)N[C@@H](CCCCNC(=O)CN2CCN(CC(=O)O)CCN(CC(=O)O)CCN(CC(=O)O)CC2)C(N)=O)CNC(=O)CCC[C@H](NC(C)=O)C(=O)N[C@@H](Cc2ccc(O)cc2)C(=O)N[C@@H](CO)C(=O)N(C)[C@@H](CCc2ccccc2)C(=O)N1C` [Example C31], the Kd [1] is reported as over 6000 nM, the IC50 [2, 4] is reported as 4840 nM and the IC50 [3] is reported as over 10000 nM.

With `CC(=O)NCCCC[C@H]1C(=O)N[C@@H](Cc2c[nH]c3ccc(O)cc23)C(=O)N[C@@H](C)C(=O)N[C@@H](C2CC2)C(=O)N(C)[C@H](C(=O)N(C)[C@@H](Cc2ccc(F)cc2)C(=O)N[C@@H](CCCCNC(=O)CN2CCN(CC(=O)O)CCN(CC(=O)O)CCN(CC(=O)O)CC2)C(N)=O)CNC(=O)CCC[C@H](NC(C)=O)C(=O)N[C@@H](Cc2ccc(O)cc2)C(=O)N[C@@H](CO)C(=O)N(C)[C@@H](CCc2ccccc2)C(=O)N1C` [Example C32] (Ac-[Aad]YS[NMehPhe][NMeK](Ac)[Trp(5-OH)]A[Gly(cPr)][NMeDap][NMePhe(4-F)]K(DOTA)-NH2; lactam 1-9) the IC50 [2, 4] was 9810 nM and the IC50 [3] was over 10000 nM.

`CC(=O)NCCCC[C@H]1C(=O)N[C@@H](Cc2c[nH]c3ccc(O)cc23)C(=O)N[C@@H](Cc2c[nH]c3ccccc23)C(=O)N[C@@H](C2CC2)C(=O)N(C)[C@H](C(=O)N(C)[C@@H](Cc2ccc(F)cc2)C(=O)N[C@@H](CCCCN)C(N)=O)CNC(=O)CCC[C@H](NC(C)=O)C(=O)N[C@H](Cc2ccc(O)cc2)C(=O)N[C@H](CO)C(=O)N(C)[C@@H](CCc2ccccc2)C(=O)N1C` [Example A48, TFA salt] was tested, and the IC50 [2] was 8300 nM and the IC50 [3] was over 10000 nM.

With `CC(=O)NCCCC[C@H]1C(=O)N[C@@H](Cc2c[nH]c3ccc(O)cc23)C(=O)N[C@@H](Cc2c[nH]c3ccccc23)C(=O)N[C@@H]([C@H](C)O)C(=O)N(C)[C@H](C(=O)N(C)[C@@H](Cc2ccc(F)cc2)C(N)=O)CNC(=O)CCC[C@H](NC(C)=O)C(=O)N[C@@H](Cc2ccc(O)cc2)C(=O)N[C@@H](CO)C(=O)N(C)[C@@H](CCc2ccccc2)C(=O)N1C` [Example A6, (3S,6S,9S,12S,15S,18S,21S,24S,27S)-9-((1H-indol-3-yl)methyl)-27-acetamido-15-(4-acetamidobutyl)-N-((S)-1-amino-3-(4-fluorophenyl)-1-oxopropan-2-yl)-12-((5-hydroxy-1H-indol-3-yl)methyl)-24-(4-hydroxybenzyl)-6-((S)-1-hydroxyethyl)-21-(hydroxymethyl)-N,4,16,19-tetramethyl-5,8,11,14,17,20,23,26,31-nonaoxo-18-phenethyl-1,4,7,10,13,16,19,22,25-nonaazacyclohentriacontane-3-carboxamide] (Ac-[Aad]YS[NMehPhe][NMeK](Ac)[Trp(5-OH)]W[aThr][NMeDap][NMePhe(4-F)]-NH2; lactam 1-9) the IC50 [2] was 1.3 nM.

`CC(=O)NCCCC[C@H]1C(=O)N[C@@H](Cc2c[nH]c3ccc(O)cc23)C(=O)N[C@@H](Cc2c[nH]c3ccccc23)C(=O)N[C@@H](C2CC2)C(=O)N(C)[C@H](C(=O)N(C)[C@@H](Cc2ccc(F)cc2)C(=O)N[C@@H](CCCCNC(=O)CN2CCN(CC(=O)O)CCN(CC(=O)O)CCN(CC(=O)O)CC2)C(N)=O)CNC(=O)CCC[C@H](NC(C)=O)C(=O)N[C@H](Cc2ccc(O)cc2)C(=O)N[C@H](CO)C(=O)N(C)[C@@H](CCc2ccccc2)C(=O)N1C` [Example C3] was tested, and the IC50 [2, 4] was over 9500 nM and the IC50 [3] was over 10000 nM.

`COCCOCCOCCOCCOCCOCCOCCOCCOCCOCCOCCOCCC(=O)N[C@H]1CCCC(=O)NC[C@@H](C(=O)N(C)[C@@H](Cc2ccc(F)cc2)C(=O)N[C@@H](CCCCNC(=O)c2ccc(F)nc2)C(N)=O)N(C)C(=O)[C@H](C2CC2)NC(=O)[C@H](Cc2c[nH]c3ccccc23)NC(=O)[C@H](Cc2c[nH]c3ccc(O)cc23)NC(=O)[C@H](CCCCNC(C)=O)N(C)C(=O)[C@H](CCc2ccccc2)N(C)C(=O)[C@H](CO)NC(=O)[C@H](Cc2ccc(O)cc2)NC1=O` [Example F3] showed a Kd [1] of under 0.1 nM, an IC50 [2] of under 0.1 nM and an IC50 [3] of 0.3 nM.

Molecule `CC(=O)NCCCC[C@H]1C(=O)N[C@@H](Cc2c[nH]c3ccc(O)cc23)C(=O)N[C@@H](Cc2c[nH]c3ccccc23)C(=O)N[C@@H](C2CC2)C(=O)N(C)[C@H](C(=O)N(C)[C@@H](Cc2ccc(F)cc2)C(=O)N[C@@H](CCCCCNC(=O)CN2CCN(CC(=O)O)CCN(CC(=O)O)CCN(CC(=O)O)CC2)C(N)=O)CNC(=O)CCC[C@H](NC(C)=O)C(=O)N[C@@H](Cc2ccc(O)cc2)C(=O)N[C@@H](CO)C(=O)N(C)[C@@H](CCc2ccccc2)C(=O)N1C` [Example C17] (Ac-[Aad]YS[NMehPhe][NMeK](Ac)[Trp(5-OH)]W[Gly(cPr)][NMeDap][NMePhe(4-F)][hLys](DOTA)-NH2; lactam 1-9) has a Kd [1] of under 0.1 nM, an IC50 [2, 4] of under 0.1 nM and an IC50 [3] of 0.1 nM.

Work on `CC(=O)NCCCC[C@H]1C(=O)N[C@@H](Cc2c[nH]c3ccc(O)cc23)C(=O)N[C@@H](Cc2c[nH]c3ccccc23)C(=O)N[C@@H](C2CC2)C(=O)N(C)[C@H](C(=O)N(C)[C@@H](Cc2ccc(F)cc2)C(=O)N[C@@H](CCCCNC(=O)CN2CCN(CC(=O)O)CCN(CC(=O)O)CC2)C(N)=O)CNC(=O)CCC[C@H](NC(C)=O)C(=O)N[C@@H](Cc2ccc(O)cc2)C(=O)N[C@@H](CO)C(=O)N(C)[C@@H](CCc2ccccc2)C(=O)N1C` [Example B10] yielded a Kd [1] of under 0.1 nM, an IC50 [2] of under 0.1 nM and an IC50 [3] of under 0.1 nM.

Molecule `CC(=O)NCCCC[C@H]1C(=O)N[C@@H](Cc2c[nH]c3ccc(O)cc23)C(=O)N[C@@H](Cc2c[nH]c3ccccc23)C(=O)N[C@@H](C2CC2)C(=O)N(C)[C@H](C(=O)N(C)[C@@H](Cc2ccc(F)cc2)C(=O)N[C@@H](CCCCNC(=O)CCC(C(=O)O)N2CCN(CC(=O)O)CCN(CC(=O)O)CC2)C(N)=O)CNC(=O)CCC[C@H](NC(C)=O)C(=O)N[C@@H](Cc2ccc(O)cc2)C(=O)N[C@@H](CO)C(=O)N(C)[C@@H](CCc2ccccc2)C(=O)N1C` (single isomer, unassigned) [Example C34] has a Kd [1] of under 0.1 nM, an IC50 [2, 4] of under 0.1 nM and an IC50 [3] of under 0.1 nM.

Work on `CC(=O)NCCCC[C@H]1C(=O)N[C@@H](Cc2c[nH]c3ccc(O)cc23)C(=O)N[C@@H](Cc2c[nH]c3ccccc23)C(=O)N[C@@H](C2CC2)C(=O)N(C)[C@H](C(=O)N(C)[C@@H](Cc2ccc(F)cc2)C(=O)N[C@@H](CCCCNC(=O)CN2CCN(CC(=O)O)CCN(CC(=O)O)CCN(CC(=O)O)CC2)C(N)=O)CNC(=O)COC[C@H](NC(C)=O)C(=O)N[C@@H](Cc2ccc(O)cc2)C(=O)N[C@@H](CO)C(=O)N(C)[C@@H](CCc2ccccc2)C(=O)N1C` [Example C16] (Ac-SYS[NMehPhe][NMeK](Ac)[Trp(5-OH)]W[Gly(cPr)][NMeDap][NMePhe(4-F)]K(DOTA)-NH2; linker 1-9 via X6) yielded a Kd [1] of under 0.1 nM, an IC50 [2, 4] of under 0.1 nM and an IC50 [3] of 0.1 nM.

In the case of `CC(=O)N[C@H]1CCCC(=O)NC[C@@H](C(=O)N(C)[C@@H](Cc2ccc(F)cc2)C(=O)N[C@@H](CCCCNC(=O)CN2CCN(CC(=O)O)CCN(CC(=O)O)CCN(CC(=O)O)CC2)C(N)=O)N(C)C(=O)[C@H](C2CC2)NC(=O)[C@H](Cc2c[nH]c3ccccc23)NC(=O)[C@H](Cc2c[nH]c3ccc(O)cc23)NC(=O)[C@H](CCCCNC(=O)CO)N(C)C(=O)[C@H](CCc2ccccc2)N(C)C(=O)[C@H](CO)NC(=O)[C@H](Cc2ccc(O)cc2)NC1=O` [Example C20], the IC50 [2, 4] is reported as 0.1 nM and the IC50 [3] is reported as 0.3 nM.

Work on `CC(=O)NCCCC[C@H]1C(=O)N[C@@H](Cc2c[nH]c3ccc(O)cc23)C(=O)N[C@@H](Cc2c[nH]c3ccccc23)C(=O)N[C@@H](C2CC2)C(=O)N(C)[C@H](C(=O)N(C)[C@@H](Cc2ccc(F)cc2)C(N)=O)CNC(=O)CCC[C@H](NC(=O)CN2CCN(CC(=O)O)CCN(CC(=O)O)CCN(CC(=O)O)CC2)C(=O)N[C@@H](Cc2ccc(O)cc2)C(=O)N[C@@H](CO)C(=O)N(C)[C@@H](CCc2ccccc2)C(=O)N1C` [Example C8] ({DOTA}-[Aad]YS[NMehPhe][NMeK](Ac)[Trp(5-OH)]W[Gly(cPr)][NMeDap][NMePhe(4-F)]-NH2; lactam 1-9) yielded an IC50 [2, 4] of 2.1 nM and an IC50 [3] of 3.3 nM.
